Test results: ChEMBL document CHEMBL1124302, “Nucleoside conjugates. 10. Synthesis and antitumor activity of 1-beta-D-arabinofuranosylcytosine 5'-diphosphate-1,2-dipalmitins” (J Med Chem, 1988)

Legend:
Type in all cases: organism-based
Mus musculus [1] = test: Toxicity in mice after 17-29 days at a dose of 80 mg/kg/day; 21/9.5; conditions: in vivo
Mus musculus [2] = test: Toxicity in mice after 17-35 days at a dose of 400 mg/kg/day; 19/9; conditions: in vivo
Mus musculus [3] = test: Toxicity in mice after 7-14 days at a dose of 100 mg/kg/day; 11/9.5; conditions: in vivo
Mus musculus [4] = test: Toxicity in mice after 9-11 days at a dose of 200 mg/kg/day; 10/9.5; conditions: in vivo
Mus musculus [5] = test: Toxicity in mice after 15-18 days at a dose of 60 mg/kg/day; 15.5/8.5; conditions: in vivo
Mus musculus [6] = test: Toxicity in mice after 17-21 days at a dose of 60 mg/kg/day; 21/8.5; conditions: in vivo
Mus musculus [7] = test: Toxicity in mice after 13-15 days at a dose of 60 mg/kg/day; 14/8.5; conditions: in vivo
Mus musculus [8] = test: Toxicity in mice after 7-8 days at a dose of 200 mg/kg/day; 8/9; conditions: in vivo
Mus musculus [9] = test: Toxicity in mice after 12-13 days at a dose of 100 mg/kg/day; 12/8; conditions: in vivo
Mus musculus [10] = test: Toxicity in mice after 9-12 days at a dose of 200 mg/kg/day; 10.5/9.5; conditions: in vivo
Mus musculus [11] = test: Toxicity in mice after 7-8 days at a dose of 100 mg/kg/day; 7/9; conditions: in vivo
Mus musculus [12] = test: Toxicity in mice after 7 days at a dose of 200 mg/kg/day; 7/9; conditions: in vivo, 168 h
Mus musculus [13] = test: Toxicity in mice after 11-12 days at a dose of 19 and 38 mg/kg/day; 11/9.5; conditions: in vivo
Mus musculus [14] = test: Toxicity in mice after 10 days at a dose of 95 and 190 mg/kg/day; 10/9.5; conditions: in vivo, 240 h
Mus musculus [15] = test: Toxicity in mice after 35->45 days at a dose of 133 mg/kg/day; 45/9.5; conditions: in vivo, 1080 h
Mus musculus [16] = test: Toxicity in mice after 8->45 days at a dose of 300 mg/kg/day; 45/9; conditions: in vivo, 1080 h
Mus musculus [17] = test: Toxicity in mice after 29->45 days at a dose of 60 mg/kg/day; 45/9; conditions: in vivo, 1080 h
Mus musculus [18] = test: Toxicity in mice after 32->45 days at a dose of 400 mg/kg/day; 45/9; conditions: in vivo, 1080 h
Mus musculus [19] = test: Toxicity in mice after 14-45 days at a dose of 100 mg/kg/day; 37.5/9; conditions: in vivo
Mus musculus [20] = test: Toxicity in mice after 15-45 days at a dose of 60 mg/kg/day; 30/9; conditions: in vivo

Which results are given for `CCCCCCCCCCCCCCCC(=O)OC[C@@H](COP(=O)(O)OP(=O)(O)OC[C@H]1O[C@@H](n2ccc(N)nc2=O)[C@@H](O)[C@@H]1O)OC(=O)CCCCCCCCCCCCCCC`?
median survival time (Mus musculus [1]): 21 days; median survival time (Mus musculus [2]): 19 days

How did the median survival time (Mus musculus [3]) turn out when `CCCCCCCCCCCCCCCC(=O)OC[C@H](COP(=O)(O)O)OC(=O)CCCCCCCCCCCCCCC.Nc1ccn([C@@H]2O[C@H](COP(=O)(O)O)[C@@H](O)[C@@H]2O)c(=O)n1` was run?
Its median survival time is 11 days.

And the median survival time (Mus musculus [4])?
Its median survival time is 10 days.

With `Nc1ccn([C@@H]2O[C@H](CO)[C@@H](O)[C@@H]2O)c(=O)n1` [CYTARABINE] as the molecule, how does the median survival time (Mus musculus [5]) read?
The median survival time was 15.5 days.

And the median survival time (Mus musculus [6])?
Its median survival time is 21 days.

What about the median survival time (Mus musculus [7]) of the same molecule?
Its median survival time is 14 days.

What about the median survival time (Mus musculus [8]) of the same molecule?
Its median survival time is 8 days.

And the median survival time (Mus musculus [9])?
Its median survival time is 12 days.

What about the median survival time (Mus musculus [10]) of the same molecule?
The median survival time was 10.5 days.

And the median survival time (Mus musculus [11])?
Its median survival time is 7 days.

What about the median survival time (Mus musculus [12]) of the same molecule?
The median survival time was 7 days.

Which median survival time (Mus musculus [13]) does the source give for `CCCCCCCCCCCCCCCC(=O)OC[C@@H](COP(=O)(O)O)OC(=O)CCCCCCCCCCCCCCC.Nc1ccn([C@@H]2O[C@H](COP(=O)(O)O)[C@@H](O)[C@@H]2O)c(=O)n1` here?
Its median survival time is 11 days.

And the median survival time (Mus musculus [14])?
Its median survival time is 10 days.

What does the source list for `CCCCCCCCCCCCCCCC(=O)OC[C@H](COP(=O)(O)OP(=O)(O)OC[C@H]1O[C@@H](n2ccc(N)nc2=O)[C@@H](O)[C@@H]1O)OC(=O)CCCCCCCCCCCCCCC`?
median survival time (Mus musculus [15]): > 45 days; median survival time (Mus musculus [16]): > 45 days; median survival time (Mus musculus [17]): > 45 days

Which median survival time (Mus musculus [18]) does the source give for `CCCCCCCCCCCCCCCC(=O)OCC(COP(=O)(O)OP(=O)(O)OC[C@H]1O[C@@H](n2ccc(N)nc2=O)[C@@H](O)[C@@H]1O)OC(=O)CCCCCCCCCCCCCCC` (mixture of isomers) here?
The median survival time was > 45 days.

What about the median survival time (Mus musculus [19]) of the same molecule?
Its median survival time is 37.5 days.

What about the median survival time (Mus musculus [20]) of the same molecule?
Its median survival time is 30 days.
